{
  "source": "patent US5180712A",
  "about": "“Petide antidementia and nootropic agents” (Fujirebio Kabushiki Kaisha, priority 1988, dated 1993)",
  "key": {"male Wistar rats [1]": {"system": "male Wistar rats", "assay": "one-trial passive avoidance: improvement effect of experimental retrograde amnesia by cycloheximide", "format": "in vivo, rat", "settings": "1 hr before electro-shock (0.5 mA), cycloheximide 2.7 to 3.0 mg/kg s.c. after shock, tested at 48 hours", "protocol": "The effect of peptides of the invention on memory consolidation was evaluated by conducting one-trial passive avoidance experiments using male Wistar rats in accordance with the method described by Burbach et al., Science, vol. 221, pp. 1310-1312, 1983. The apparatus was composed of an illuminated room and a dark room, and their floors were made of a stainless-steel grid. The rats placed in the illuminated room could freely enter the dark room. Upon entering the dark room the rats received an electro-shock. Retention of passive avoidance behavior to the electro-shock was determined by the measurement of a response latent period, i.e. the period required for the rat which experienced the electro-shock to re-enter the dark room from the time at which the rat was placed in the illuminated room after predetermined intervals. The rats received an electro-shock (0.5 mA) one hr. after the administration of the peptides of the invention or a physiological saline solution. Immediately after receiving the electro-shock, the rats were treated with 2.7 to 3.0 mg/kg of cycloheximide or the saline solution by subcutaneous injection. At 48 hours after the administration was made, memory retention of the rats was tested. […] The average response latent period of rats administered with each peptide of the invention and treated with cycloheximide were compared with that of the control group. Six to eight rats were used for each group tested. The response latent period was measured up to a maximum of 600 seconds. The dose and the effect (the ratio of response latent period of each group to that of the control groups, shown as %) of the peptides obtained in each example and the peptides of each comparison example are set forth in Table 2."}, "male Wistar rats [2]": {"system": "male Wistar rats", "assay": "one-trial passive avoidance: facilitation effect of memory consolidation", "format": "in vivo, rat", "settings": "for Effect (ratio of the response latent period of each group to that of the control groups): retention tested 24 hours later, latency max 600 seconds", "protocol": "The effect of peptides of the invention on memory consolidation was evaluated by conducting one-trial passive avoidance experiments using male Wistar rats in accordance with the method described by Burbach et al., Science, vol. 221, pp. 1310-1312, 1983. The apparatus was composed of an illuminated room and a dark room, and their floors were made of a stainless-steel grid. The rats placed in the illuminated room could freely enter the dark room. Upon entering the dark room the rats received an electro-shock. Retention of passive avoidance behavior to the electro-shock was determined by the measurement of a response latent period, i.e. the period required for the rat which experienced the electro-shock to re-enter the dark room from the time at which the rat was placed in the illuminated room after predetermined intervals. The rats were treated with the peptides of the invention obtained in the aforementioned Example 1 to 4 or a physiological saline solution by means of a subcutaneous injection immediately after receiving the electro-shock (0.25 mA). Then 24 hours later, the retention of the memory of the electro-shock was tested. […] Comparison Compound 2 (known peptide): [drawing 14] For each group, 6 to 8 rats were tested. The response latent period was measured up to a maximum of 600 seconds. The dose and the effect (the ratio of the response latent period of each group to that of the control groups, shown as %) of the peptides obtained in each example and the peptides of each comparison compound are set forth in Table 1."}, "[3]": {"settings": "dose 1 ng/kg subcutaneous immediately after electro-shock (0.25 mA)"}},
  "note": "Where a SMILES comes first, the peptide text is derived from it. Bridges are numbered along the chain shown (N, C = ends). Roman numbers before positions name the chains, in order. [ ]: non-standard residue; d: D form. The star is where a group is joined. Cys(free,S-linked) = N[C@@H](CS*)C(=O)O; pGlu = O=C1CC[C@@H](C(=O)O)N1",
  "data": [
    {"smiles": "N=C(N)NCCC[C@H](NC(=O)[C@@H]1CCCN1C(=O)[C@H](CS)NC(=O)[C@@H](N)CC(N)=O)C(=O)O", "note": "[Example 4, H-Asn-Cys-Pro-Arg-OH acetate] (H-NCPR-OH)", "values": [
      {"measurement": "Effect (ratio of response latent period of each group to that of the control groups)", "setting": "male Wistar rats [1]; dose 1 ng/kg", "value": 320, "unit": "%"},
      {"measurement": "Effect (ratio of the response latent period of each group to that of the control groups)", "setting": "male Wistar rats [2]; [3]", "value": 316, "unit": "%"}
    ]},
    {"smiles": "N=C(N)NCCC[C@H](NC(=O)[C@@H]1CCCN1C(=O)[C@H](CSSC[C@H](NC(=O)[C@H](CC(N)=O)NC(=O)[C@@H]1CCC(=O)N1)C(=O)N1CCC[C@H]1C(=O)N[C@@H](CCCNC(=N)N)C(=O)NCC(N)=O)NC(=O)[C@H](CC(N)=O)NC(=O)[C@@H]1CCC(=O)N1)C(=O)NCC(N)=O", "note": "[Comparison 2, reference compound] (I: [pGlu]NCPRG-NH2 / II: [pGlu]NCPRG-NH2; disulfide I:3-II:3)", "values": [
      {"measurement": "Effect (ratio of response latent period of each group to that of the control groups)", "setting": "male Wistar rats [1]; dose 100 ng/kg", "value": 503, "unit": "%"},
      {"measurement": "Effect (ratio of the response latent period of each group to that of the control groups)", "setting": "male Wistar rats [2]; dose 10 ng/kg subcutaneous immediately after electro-shock (0.25 mA)", "value": 249, "unit": "%"}
    ]},
    {"smiles": "N=C(N)NCCC[C@H](NC(=O)[C@H]1CCCN1C(=O)[C@H](CSSC[C@H](N)C(=O)O)NC(=O)[C@H](CC(N)=O)NC(=O)[C@@H]1CCC(=O)N1)C(=O)NCC(N)=O", "note": "[Example 3] ([pGlu]NC(Cys(free,S-linked))[dP]RG-NH2)", "values": [
      {"measurement": "Effect (ratio of response latent period of each group to that of the control groups)", "setting": "male Wistar rats [1]; dose 1 ng/kg", "value": 380, "unit": "%"},
      {"measurement": "Effect (ratio of the response latent period of each group to that of the control groups)", "setting": "male Wistar rats [2]; [3]", "value": 253, "unit": "%"}
    ]},
    {"smiles": "N=C(N)NCCC[C@@H](NC(=O)[C@@H]1CCCN1C(=O)[C@H](CSSC[C@H](N)C(=O)O)NC(=O)[C@H](CC(N)=O)NC(=O)[C@@H]1CCC(=O)N1)C(=O)NCC(N)=O", "note": "[Example 1] ([pGlu]NC(Cys(free,S-linked))P[dR]G-NH2)", "values": [
      {"measurement": "Effect (ratio of response latent period of each group to that of the control groups)", "setting": "male Wistar rats [1]; dose 1 ng/kg", "value": 302, "unit": "%"},
      {"measurement": "Effect (ratio of the response latent period of each group to that of the control groups)", "setting": "male Wistar rats [2]; [3]", "value": 267, "unit": "%"},
      {"measurement": "dose giving the same effect, as fraction of the dose of Comparison Compound 1", "setting": "male Wistar rats [2]; passive avoidance tests, versus Comparison Compound 1", "value": "1/10"}
    ]},
    {"smiles": "N=C(N)NCCC[C@H](NC(=O)[C@@H]1CCCN1C(=O)[C@H](CS)NC(=O)[C@H](CC(N)=O)NC(=O)[C@@H]1CCC(=O)N1)C(=O)NCC(N)=O", "note": "[Example 2, pGlu-Asn-Cys-Pro-Arg-Gly--NH2 acetate] ([pGlu]NCPRG-NH2)", "values": [
      {"measurement": "Effect (ratio of response latent period of each group to that of the control groups)", "setting": "male Wistar rats [1]; dose 1 ng/kg", "value": 633, "unit": "%"},
      {"measurement": "Effect (ratio of the response latent period of each group to that of the control groups)", "setting": "male Wistar rats [2]; [3]", "value": 295, "unit": "%"}
    ]}
  ]
}
